From patent US11642345B2, “Replication stress pathway agent compositions and methods for treating cancer” (Boundless Bio, Inc., priority 2020, dated 2023)
“Also recorded” adds a separate entry of the source.

Key:
[1] = system: Colo320 DM (ecDNA+) and Colo320 HSR (ecDNA−) cells; assay: MTS cell proliferation assay, 7 days, Colo320 ecDNA+ vs ecDNA−; type: cell-based
Method: (§1) Sensitivity of an ecDNA+ (Colo320 ecDNA+) and an ecDNA− (Colo320 ecDNA−) cell line models to WEE1 inhibition was determined by treating each with increasing concentrations of either adavosertib or PD0166285 over a 7 day period. Cell proliferation was determined using a MTS assay (FIG. 27, top panels), while viability was determined using CellTiter-glo assay (FIG. 27 bottom panels).
(§2) Cell proliferation was determined using a MTS assay (FIG. 36, top panels), while viability was determined using CellTiter-glo assay (FIG. 36, bottom panels).

[2] = system: Colo320 ecDNA+ and Colo320 ecDNA− cells; assay: CellTiter-glo viability assay, 7 days, Colo320 ecDNA+ vs ecDNA−; type: cell-based
Method: as §1, §2

HeLa cells [3] = assay: HeLa cell confluence by high-content microscopy over three weeks, with or without 100 nM methotrexate; type: cell-based; conditions: for development of methotrexate resistance: in combination with 100 nM methotrexate; for development of methotrexate resistance / cell growth (cell confluence), agent alone: three weeks; for cell growth (cell confluence), agent alone: 10 nM GDC-0575, 100 nM methotrexate, 300 nM-10 μM AZD6738
Method: Cell confluence was measured via high-content microscopy over the time course.
HeLa cells were treated with a WEE1 inhibitor, 0.01-0.3 μM adavosertib alone, with 1 nM-100 nM PD0166285, with 100 nM methotrexate alone, or with a combination of 0.01-0.3 μM adavosertib and 100 nM methotrexate or a combination of 1 nM-100 nM PD0166285 and 100 nM methotrexate over the course of three weeks. Cell confluence was measured via high-content microscopy over the time course.
HeLa cells were treated with a PARG inhibitor, 3-100 μM PD00017273 with (FIG. 35 top panel) or without (FIG. 35 bottom panel) 100 nM methotrexate over the course of 3 weeks. Cell confluence was measured via high-content microscopy over the time course.
Cell confluence was measured via high-content microscopy over the time course. […] However.

[4] = system: Colo320 DM ecDNA+ and Colo320 HSR ecDNA− cells; assay: Sensitivity of Colo320 DM and Colo320 HSR to CHK1 inhibitors, seven days (FIG. 13); type: cell-based; conditions: CHK2 or ATM inhibition
Method: The sensitivity of an ecDNA+ cell line (Colo320 DM) compared with an ecDNA− cell line (Colo320 HSR) to four structurally distinct CHK1 inhibitors was determined.

[5] = system: Colo320 ecDNA+ (COLO320 DM) and Colo320 ecDNA− (COLO320 HSR) cells; assay: Sensitivity of Colo320 ecDNA+ and ecDNA− cells to RNR inhibitors (FIG. 12); type: cell-based; conditions: for induction of replication stress marker, phosphorylation at serine positions 317 and 345 of CHK1: Colo320 DM and HSR cells
[6] = system: panel of ecDNA+ cell lines; assay: Two-week soft-agar 3D colony formation assay, adavosertib (FIG. 31); type: cell-based; conditions: five-point dose range, two weeks
Method: FIG. 31 illustrates sensitivity of ecDNA+ cells to inhibition of WEE1 using adavosertib in a 3-dimensional colony formation assay conducted in soft-agar. A panel of ecDNA+ cell lines were interrogated in a two-week soft agar drug sensitivity assay. All lines were treated with a five-point dose range of adavosertib for two weeks and stained with crystal violet to quantify individual colony counts.

HeLa cells [7] = assay: HeLa colony formation assay, resistance formation to methotrexate (FIG. 32); type: cell-based; conditions: 10000 cells plated with methotrexate for 21 days, IC50, 1/3 IC50, or 1/9 IC50
[8] = system: KRASi resistant tumor cells cultured ex vivo; assay: KRASi resistant tumor cells implanted into NOD-SCID mice, tumor growth; type: in vivo; conditions: adagrasib 50 mg/kg orally once per day
Description: KRASi resistant tumor cells cultured ex vivo from Example 5 were implanted into NOD-SCID mice. […] Mice were implanted with the KRAS-resistant tumor cells as above.

[9] = system: ecDNA+ (Colo320 DM) and ecDNA− (Colo320 HSR) cells; assay: DNA fiber analysis, replication fork speed; type: cell-based; conditions: 16 hr treatment
Method: FIGS. 42A-42B show intrinsic replication fork dysfunction in ecDNA(+) cancer cells is further compromised by RNR inhibition relative to […]. […] The two cell models were then pulse-labeled with the thymidine analogues chlorodeoxyuridine (CldU) and iododeoxyuridine (IdU) for 30 min each (FIG. 42A). Cells were lysed, DNA fibers spread out and immunostained using specific antibodies against CldU and IdU. […] A difference of -0.13 kb/min in replication fork speed between ecDNA+ and […] treated with RNRi was observed. Statistical significance was calculated using nonparametric Kolmogorov-Smirnov test. FIGS. 43A-43B show intrinsic replication fork dysfunction in ecDNA+ cancer cells is further compromised by CHK1 inhibition relative to […]. […] The two cell models were then pulse-labeled with the thymidine analogues chlorodeoxyuridine (CldU) and iododeoxyuridine (IdU) for 30 min each (FIG. 43A). Cells were lysed, DNA fibers spread out and immunostained using specific antibodies against CldU and IdU.

SNU16 cells = assay: Long-term cell growth / resistance development in SNU16 cells; type: cell-based, human; conditions: for cell growth / development of primary resistance: FIG. 25, 12 weeks, 1 uM infigratinib, 1 uM erlotinib, 10 nM gemcitabine; for cell growth / resistance formation: 9 weeks
Method: Each treatment arm was terminated once the cell number reached 5×10^6.
SNU16 cells were subdivided into five groups and each group of 1×10^6 cells was subjected to treatment with 1 μM infigratinib, 1 μM erlotinib, 1 μM infigratinib and 1 μM erlotinib, 0.1 μM adavosertib and cell growth was recorded over 9 weeks.
SNU16 cells were subdivided into five groups and each group of 1×10^6 cells was subjected to treatment with infigratinib, erlotinib, PD00017273, infigratinib and erlotinib, or infigratinib and PD00017273 and cell growth was recorded over 9 weeks.
SNU16 (CRL-5974) cell line was purchased from ATCC. SNU16 cells were grown in RPMI 1640 medium (Fisher Scientific) with 10% FBS and 100 U/ml penicillin/streptomycin (Fisher Scientific). For the resistance experiments, SNU16 cells were plated at 2 million per T75 flask and were treated with either 1 μM infigratinib (Selleck Chemicals), 1 μM erlotinib (Selleck Chemicals), 10 nM gemcitabine (Sigma Aldrich), or a combination. The media was changed and fresh drug was added at least once per week. The cells were counted over the span of several weeks to measure cell growth.

[10] = system: infigratinib-resistant SNU16 cells; assay: Secondary resistance, cell growth of infigratinib-resistant SNU16 cells over 5 weeks; type: cell-based, human; conditions: FIG. 26, 1 uM infigratinib, 1 uM erlotinib, 10 nM gemcitabine
Method: The infigratinib-resistant SNU16 cells (generated as shown in FIG. 25) were subdivided into six groups and each group of 1×10^6 cells was subjected to treatment with 1 uM infigratinib, 1 uM erlotinib, 10 nM gemcitabine, or 1 uM erlotinib+10 nM gemcitabine and the cell growth was recorded over 5 weeks. Each treatment arm was terminated once the cell number reached 5×10^6.

[11] = system: ecDNA+ cell lines (SNU16, Colo320 DM, H716, and H2170) and ecDNA− cell lines (DLD1, Colo320 HSR, Lovo, and SW48); assay: Two-week soft-agar 3D colony formation assay, gemcitabine (FIG. 5); type: cell-based; conditions: five-point dose range, two weeks, colony counts
Method: A panel of ecDNA+ and ecDNA− cell lines were interrogated in a two-week soft-agar drug sensitivity assay. All lines were treated with a five-point dose range of gemcitabine for two weeks and stained with crystal violet (FIG. 5, top panel) to quantify individual colony counts by ImageJ analysis (plotted in FIG. 5, bottom panel).

[12] = system: CT26WT E3 G12C KRAS mutant tumor cells; assay: Treatment of CT26WT E3 G12C KRAS mutant tumors in mice, tumor growth (Examples 3 and 4); type: in vivo; conditions: adagrasib 50 mg/kg orally once per day
Description: (§3) Mice were implanted with CT26WT E3 G12C KRAS mutant tumor cells.
as §3

KRAS amplified ecDNA = assay: KRAS ecDNA by FISH in metaphase spreads from ex vivo cultures of treated tumors; parameters: species or system murine
Method: ecDNA were measured in metaphase spreads prepared from ex vivo cultures established from tumors taken from the mice on day of sacrifice. ecDNA counts were determined using FISH for murine KRAS.
Metaphase spreads were prepared from metaphase arrested and fixed ex vivo cultures established from tumors taken from mice in treatment groups and ecDNA was visualized by FISH for murine KRAS.

CCN(CC)CCOc1ccc(Nc2ncc3cc(-c4c(Cl)cccc4Cl)c(=O)n(C)c3n2)cc1 [PD0166285]
sensitivity of Colo320 ecDNA+ compared with ecDNA− cells, proliferation changes [1]: enhanced sensitivity | sensitivity of Colo320 ecDNA+ compared with ecDNA− cells, viability changes [2]: enhanced sensitivity | development of methotrexate resistance (HeLa cells [3]): abrogation of methotrexate resistance

CN(C)CCCOc1ccc(-c2ccc3ncc4c(c3c2)n(C2CCOCC2)c(=O)n4C)cn1 [AZD0156]
differential sensitivity between the two lines [4]: neither inhibiting CHK2 with CCT241533 nor inhibiting DDR target, ATM, with AZD0156 revealed any differential sensitivity

C[C@@H]1COCCN1c1cc(C2([S@](C)(=N)=O)CC2)nc(-c2cc[nH]c3nccc2-3)n1 [AZD6738]
sensitivity of Colo320 ecDNA+ compared with ecDNA− cells, proliferation changes [1]: enhanced sensitivity | sensitivity of Colo320 ecDNA+ compared with ecDNA− cells, viability changes [2]: enhanced sensitivity | cell growth (cell confluence), agent alone (HeLa cells [3]): did not affect HeLa cell growth | synthetic lethality with methotrexate (HeLa cells [3]; with 100 nM methotrexate, 3 weeks): synthetic lethality

NC(=O)NO [hydroxyurea]
induction of replication stress marker, phosphorylation at serine positions 317 and 345 of CHK1 [5]: induced the replication stress marker | ecDNA copy number ([5]; ecDNA+ (Colo320 DM) cells, vs vehicle treated): markedly reduced

C=CCn1c(=O)c2cnc(Nc3ccc(N4CCN(C)CC4)cc3)nc2n1-c1cccc(C(C)(C)O)n1 [adavosertib]
sensitivity, colony counts [6]: demonstrated sensitivity | resistance formation to methotrexate (HeLa cells [7]): abrogation of resistance formation to methotrexate | sensitivity of Colo320 ecDNA+ compared with ecDNA− cells, proliferation changes [1]: enhanced sensitivity | sensitivity of Colo320 ecDNA+ compared with ecDNA− cells, viability changes [2]: enhanced sensitivity | development of methotrexate resistance (HeLa cells [3]): prevented development of methotrexate resistance | tumor growth ([8]; from about 180 mm^3, adavosertib 60 mg/kg orally once per day, PD0166285 0.3 mg/kg ip once per day): inhibited tumor growth

COc1cccc(OCCCN)c1-c1cc(Nc2cnc(C#N)cn2)n[nH]1 [prexasertib]
difference in replication fork speed between treated ecDNA+ and ecDNA− cells [9]: −0.1 kb/min

C#Cc1cccc(Nc2ncnc3cc(OCCOC)c(OCCOC)cc23)c1 [erlotinib]
cell growth / development of primary resistance (SNU16 cells): no effect on cell growth on its own | cell growth / resistance formation (SNU16 cells; FIG. 30, 1 μM infigratinib, 1 μM erlotinib, 0.1 μM adavosertib): no effect on cell growth on its own | cell growth / resistance formation (SNU16 cells; FIG. 34): little to no effect on cell growth | cell growth / development of secondary resistance [10]: delayed cell growth for the first two weeks, but the cells continued to grow quickly after that; also recorded: initially sensitive to EGFR inhibitor erlotinib but develop secondary resistance within three weeks

CN(Cc1cnc2nc(N)nc(N)c2n1)c1ccc(C(=O)N[C@@H](CCC(=O)O)C(=O)O)cc1 [methotrexate]
cell growth (cell confluence), agent alone (HeLa cells [3]): initially resulted in little to no cell growth, but after two weeks in culture, the cells began to develop resistance and cell growth resumed

COc1cc2nc(-c3cc(F)ccc3O)nc(N[C@@H]3CNC[C@H]3C(C)(C)O)c2cc1OC [CCT241533]
differential sensitivity between the two lines [4]: neither inhibiting CHK2 with CCT241533 nor inhibiting DDR target, ATM, with AZD0156 revealed any differential sensitivity

Cc1ccc(F)c([C@@H](C)[C@H](NS(=O)(=O)c2ccc(Cl)cc2C(N)=O)c2n[nH]c(=O)o2)c1C [compound 1, 5-chloro-2-(n-((1S,2R)-2-(6-fluoro-2,3-dimethylphenyl)-1-(5-oxo-4,5-dihydro-1,3,4-oxadiazol-2-yl)propyl)sulfamoyl)benzamide]
induction of replication stress marker, phosphorylation at serine positions 317 and 345 of CHK1 [5]: induced the replication stress marker

Nc1ccn([C@@H]2O[C@H](CO)[C@@H](O)C2(F)F)c(=O)n1 [gemcitabine]
induction of replication stress marker, phosphorylation at serine positions 317 and 345 of CHK1 [5]: induced the replication stress marker | fold enhanced sensitivity of ecDNA+ cell lines compared with ecDNA− cell lines [11]: 5-10 fold | tumor growth ([12]; Example 3, from average volume 350 mm^3, gemcitabine 10 mg/kg ip every other day or 120 mg/kg ip once per week): only KRASi (adagrasib) resulted in a significant delay in tumor growth | tumor growth ([12]; Example 4, gemcitabine 10 or 20 mg/kg ip every other day): substantial tumor growth | KRAS ecDNA level (KRAS amplified ecDNA; Example 3, tumors at day of sacrifice (D21 or D16)): no KRAS amplified ecDNA was seen | ecDNA copy number per metaphase spread where ecDNA present (KRAS amplified ecDNA; Example 4): 1-3 per metaphase spread | metaphase spreads with little to no ecDNA (KRAS amplified ecDNA; Example 4, treatment group 3): 78/95 | tumor growth ([8]; from 290 mm^3, gemcitabine 10 mg/kg ip every other day): inhibited tumor growth | cell growth / development of primary resistance (SNU16 cells): delayed cell growth for the first two weeks, but the cells continued to grow quickly after that | cell growth / development of secondary resistance [10]: delayed cell growth for the first two weeks, but the cells continued to grow quickly after that | difference in replication fork speed between treated ecDNA+ and ecDNA− cells [9]: −0.13 kb/min
